Assay results: patent US10611765B2, “Pyrrolopyrimidine derivatives as Mps1/TTK kinase inhibitors” (Ohio State Innovation Foundation, priority 2014, dated 2020)

Experiments:
[1] = test system: BT-549; assay: MTS anti-proliferative assay, BT-549; type: cell-based; conditions: Homo sapiens, 168 h, BT-549, TNBC, basal B, treatment for 7 days
Experimental: (§1) The anti-proliferative effects and IC50 values of the compounds in the BC cell line panel were determined by MTS assay.
(§2) The cells, except Sk-Br-3, AU565 and BT-474 were maintained in a mixture of Dulbecco's modified Eagle's medium and Ham's F12 medium (1:1) (DMEM/F12) without phenol red supplemented with 5% fetal bovine serum (FBS) and 1× antibiotic-antimycotic (100 U/mL penicillin G sodium, 100 μg/mL streptomycin sulfate and 0.25 μg/mL amphotericin B) and were plated separately in flasks in a humidified incubator (5% CO2: 95% air, 37° C.). The media used for Sk-Br-3, AU565 and BT-474 cell lines was described in (1) Brueggemeier et al., J. Steroid Biochem. Mol. Biol., 2005; 95:129-136; and (2) Diaz-Cruz et al., J. Clin. Endocrinol. Metab., 2005; 90:2563-2570. The media were changed every 2-days. When the cells grew to about 80% confluence, cells were washed twice with calcium- and magnesium-free phosphate-buffered saline (PBS, pH 7.4), and then trypsinized with 0.05% trypsin-5.3 mm EDTA. The trypsinization was stopped by addition of culture medium with 5% FBS. After centrifugation, the dissociated cells were resuspended in the same medium and subcultured into 75-cm^2 culture flasks at a ratio of 1:5 flasks.
(§3) The BC cells were seeded at the density of 1,000 cells per well (100 μL) into 96 well plate in DMEM/F-12 (1:1), supplemented with 5% (v/v) FCS and incubated overnight at 37° C. Test compounds are solubilized in dimethyl sulfoxide (DMSO), diluted in cell culture medium to a range of final assay concentrations of 1 nM to 10 μM, added to cells and incubated for 7 days at 37° C. The medium including the test compound are refreshed at days 3 and 5. The MTS assay are carried out by using the CellTiter 96® AQueous One Solution Cell Proliferation Assay kit following the manufacturer's instruction.

[2] = test system: CAL-51; assay: MTS anti-proliferative assay, CAL-51; type: cell-based; conditions: Homo sapiens, 168 h, CAL-51, TNBC, basal, treatment for 7 days
Experimental: as §1, §2, §3

[3] = test system: MDA-MB-436; assay: MTS anti-proliferative assay, MDA-MB-436; type: cell-based; conditions: Homo sapiens, 168 h, MDA-MB-436, TNBC, basal B, treatment for 7 days
Experimental: as §1
(§4) The media were changed every 2-days. When the cells grew to about 80% confluence, cells were washed twice with calcium- and magnesium-free phosphate-buffered saline (PBS, pH 7.4), and then trypsinized with 0.05% trypsin-5.3 mm EDTA. The trypsinization was stopped by addition of culture medium with 5% FBS.
as §3

[4] = test system: MDA-MB-453; assay: MTS anti-proliferative assay, MDA-MB-453; type: cell-based; conditions: Homo sapiens, 168 h, MDA-MB-453, luminal A, treatment for 7 days
Experimental: as §1, §4, §3

[5] = test system: MCF-7; assay: MTS anti-proliferative assay, MCF-7; type: cell-based; conditions: Homo sapiens, MCF7, 168 h, MCF-7, luminal A, treatment for 7 days
Experimental: as §1, §2, §3

[6] = test system: Cal-51 cells; assay: Centriole assembly / centrosome amplification assay, Cal-51; type: cell-based
Experimental: (§5) For these cell biology assays, cells were plated onto poly-L-lysine coated coverslips in 24 well dishes using the medium and growth conditions described above, but using medium containing phenol red. At 24 hours after plating, compounds (or the equivalent amount of DMSO) were added to individual wells at various concentrations. Cells were incubated for 24 hours at 37° C. BrdU was added during the last 4 hours of the incubation, after which cells were fixed in pre-chilled methanol at −20 OC for 10 minutes, stained with centrosome markers, then treated with acid to denature chromosomal DNA prior to staining for BrdU. To assess centriole biogenesis, centriole number was determined for triplicate samples in cells that had entered S-phase as judged by incorporation of BrdU. Primary antibodies used were mouse anti-γTubulin (pericentriolar material) and rabbit anti-Centrin 2 (centrioles). Secondary antibodies used were Alexa594-conjugated donkey anti-mouse and Alexa488-conjugated donkey anti-rabbit.
For centriole assembly assays, Cal-51 and MDA-MB-468 cells were treated with candidate compounds prior to a short pulse of BrdU. Because the centriole pair is replicated at the G1/S transition, compounds that block centrosome assembly will lead to an increased number of BrdU-positive cells with two centrioles. In addition, like many breast cancer cells Cal-51 and MDA-MB-468 are capable of centrosome amplification, and compounds that block this centrosome amplification should reduce the number of BrdU-positive cells with more than four centrioles.

[7] = test system: MDA-MB-468 cells; assay: Centriole assembly / centrosome amplification assay, MDA-MB-468; type: cell-based; conditions: compared to IN-1, AZ3146 and Compound 5
Experimental: as §5
For centriole assembly assays, Cal-51 and MDA-MB-468 cells were treated with candidate compounds prior to a short pulse of BrdU. Because the centriole pair is replicated at the G1/S transition, compounds that block centrosome assembly will lead to an increased number of BrdU-positive cells with two centrioles. […]

[8] = test system: Cal-51 cells; assay: Spindle checkpoint assay, Cal-51; type: cell-based; conditions: for abrogating the spindle checkpoint: Cal-51, at 1 μM
Experimental: For spindle checkpoint assays, S-phase arrested cells treated with candidate compounds were released into medium containing the spindle poison nocodazole. Because the spindle checkpoint prevents the metaphase to anaphase transition in the presence of spindle damage, compounds that block the spindle checkpoint will lead to a decreased number of mitotic cells in the presence of nocodazole. Briefly, cells were arrested in S-phase with a 24 hour treatment with 2 mM thymidine. Three hours after removing thymidine to release cells from S-phase arrest, nocodazole was added at 200 ng/mL. After 12 hours in the presence of nocodazole, cells were fixed and stained with mouse anti-cyclin B and Hoechst, and the percentage of cyclin B positive cells with condensed chromosomes was determined in triplicate samples.

[9] = molecular target: JNK1 (Homo sapiens, UniProt P45983); conditions: read-out: IC50 JNK1; kinase profiling
Experimental: (§6) Briefly, the inhibition potency to Mps1 kinase activity was determined by measurement of radioactive phosphotransfer to the specific substrate, Cetn2. The autophosphorylation of Mps1 was also measured using the same method without adding Cetn2 in the kinase assay reaction mixture. […] Mps1 activity was measured using 0.25 ng of recombinant GST-Mps1 protein in 50 mM TrisCl pH 7.5, 0.5 mM DTT, 10 mM MgCl2, 300 μM recombinant Cetn2 and 3 μM ^32P-γ-ATP. […] ATP was added to initiate the kinase assay, incubated at 30° C. for 30 min and five-fold volume of […] was added to quench the reaction. The whole reaction was immobilized on Immobilon-P^SQ PVDF membrane (Millipore) using a dot blotter connected to vacuum line. Each well was washed three times with 300 μL of PBS. The membrane was further washed by soaking in PBS, dried, and exposed overnight to a Phosphor Screen. The image was acquired by the Storm imaging system (Amersham). The density analyses were performed by using Image-J program, and kinetic constants were calculated by GraphPad Prism 5 software. Commercial kinase profiling assays were performed by Reaction Biology Corp., Malvern, Pa.

[10] = molecular target: twenty common kinases; assay: Kinase profiling assays for twenty common kinases; type: biochemical
Experimental: as §6

Chain of JNK1 (P45983 whole entry): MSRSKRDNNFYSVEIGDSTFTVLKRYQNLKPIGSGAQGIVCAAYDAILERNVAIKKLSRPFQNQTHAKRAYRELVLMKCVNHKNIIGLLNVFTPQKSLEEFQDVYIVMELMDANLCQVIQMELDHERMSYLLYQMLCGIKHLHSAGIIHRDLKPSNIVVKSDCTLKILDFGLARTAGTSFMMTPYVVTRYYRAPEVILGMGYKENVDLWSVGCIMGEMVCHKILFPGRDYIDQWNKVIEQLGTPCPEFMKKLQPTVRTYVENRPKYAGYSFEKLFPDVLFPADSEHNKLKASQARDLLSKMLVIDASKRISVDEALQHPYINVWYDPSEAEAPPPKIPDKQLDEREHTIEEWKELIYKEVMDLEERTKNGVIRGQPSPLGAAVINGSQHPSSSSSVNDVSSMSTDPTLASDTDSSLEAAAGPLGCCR

SMILES | IC50 [1] [nM] | IC50 [2] [nM] | IC50 [3] [nM] | IC50 [4] [nM] | IC50 [5] [nM] | percentage of cells with more than four centrioles (centrosome amplification) ([6]; Cal-51) | percentage of BrdU positive cells that have just two centrioles (centriole assembly) ([6]; Cal-51, continued investigations) | percentage of BrdU-positive cells that have just two centrioles [7] | percentage of cells with more than four centrioles [7] | abrogating the spindle checkpoint [8] | ability of cells to arrest in response to nocodazole ([8]; Cal-51, nocodazole 200 ng/mL, 12 hours) | IC50 [9] [nM] | kinases inhibited in profiling of twenty common kinases [10]
COc1cc(N2CCC(O)CC2)ccc1Nc1nc(Nc2ccccc2S(=O)(=O)C(C)C)c2cc[nH]c2n1 [Compound 1, 1-(4-((4-((2-(isopropylsulfonyl)phenyl)amino)-7H-pyrrolo[2,3-d]pyrimidin-2-yl)amino)-3-methoxyphenyl)piperidin-4-ol] | 810 | 230 | 900 | 820 | 440 | dose-dependent reduction | dose-dependent increase | increases | decreases | more effective than IN-1, AZ3146, or compound 5 | dose-dependent reduction | – | –
COc1cc(N2CCOCC2)ccc1Nc1nc(NC2CCCCC2)c2cc[nH]c2n1 [Compound 13, N4-cyclohexyl-N2-(2-methoxy-4-morpholinophenyl)-7H-pyrrolo[2,3-d]pyrimidine-2,4-diamine] | – | 450 | – | – | > 10000 | – | – | – | – | most effective | – | 1670 | only two kinases
